Results reported in patent publication US20240148767A1, “THE USE OF EMPAGLIFLOZIN FOR THE TREATMENT OF ULCERATIVE COLITIS AND CROHN'S DISEASE” (The Governors of the University of Alberta, priority 2021, published 2024).
Entries after “also recorded” stand apart in the source; their conditions may differ.

What was measured:
[1] = healthy humans, dose matched to the human active dose; cited from earlier work
SGLT2 over SGLT1 = details: cited from earlier work
[2] = tested on: IL-10−/− mice with established colitis; test: EMPA treatment of adult IL-10−/− mice with established colitis; type: in vivo, mouse
Text: Methods: In our colony, IL-10−/− mice begin to develop colitis between 8-12 weeks of age. […] Further, this dose was also chosen to match the active dose in humans by considering the differences in the metabolism and other pharmacokinetic parameters between mice and humans^55. The dose used in this study results in free plasma concentration of ˜20 nmol/L in mice^56 which is within the normal and safe range of that reported in humans^57-59. […] Adult IL-10^−/− mice with established colitis were treated with a daily gavage of EMPA (10 mg/kg; n=10) or vehicle (n=10) for 14 days. Disease activity was assessed by measurement of mouse weight, colonic weight and length, histological score, cytokine levels in colonic homogenate and lipocalin-2 levels in stool. To examine for possible direct effects of EMPA, colonic explants from wild-type and IL-10^−/− mice were incubated with increasing doses of EMPA (0.1-5 μM)±LPS for 2 hours and tissue levels of IL-1β and TNFα measured.
FIG. 4. Representative histological samples of colons. Colons were flushed with phosphate-buffered saline containing 0.1% gentamycin and immediately fixed in 10% v/v neutral buffered formalin. The fixed samples were paraffin-embedded, sectioned, and stained with hematoxylin and eosin. Disease scoring methods used were based on four scores: 1) epithelial hyperplasia (0-3), 2) enterocyte injury (0-3), 3) lymphocytes (0-2) and neutrophil infiltration (0-2) in the lamina propria. The total maximum histological score (10) is based on the sum of the individual scores. (A) control. (B) Empa.

murine macrophages = murine macrophages in vitro, cited from earlier work
human THP-1 macrophages = details: pretreatment for 24 hours; cited from earlier work
[3] = mice, 10 mg/kg dose; cited from earlier work
[4] = cited from earlier work
[5] = EMPA 10 mg/kg daily gavage, 14 days, p=0.04

In the case of `OC[C@H]1O[C@@H](c2ccc(Cl)c(Cc3ccc(O[C@H]4CCOC4)cc3)c2)[C@H](O)[C@@H](O)[C@@H]1O` [EMPA, Empagliflozin], the hypoglycemia [1] is given as “does not cause hypoglycemia”, the “selectivity for SGLT2 over SGLT1” value (SGLT2 over SGLT1) is given as roughly 2700 fold and the “lymphocytic infiltration into the lamina propria” value ([2]; EMPA 10 mg/kg daily gavage, 14 days) is given as “reduced”. The “enterocyte injury (histological score)” value ([2]; EMPA 10 mg/kg daily gavage, 14 days, vs vehicle, p<0.01) was “no enterocyte injury; also recorded: significant decrease”, the total histological score ([2]; EMPA 10 mg/kg daily gavage, 14 days, vs vehicle, p=0.006) was “decreased” and the “lamina propria neutrophils (histological score)” value ([2]; EMPA 10 mg/kg daily gavage, 14 days, vs vehicle, p=0.01) was “decreased”. The “colonic weight to length ratio” value ([2]; EMPA 10 mg/kg daily gavage, 14 days, vs vehicle, p=0.019) was “decreased”, the “fecal lipocalin-2” value ([2]; EMPA 10 mg/kg daily gavage, 14 days, vs vehicle, p=0.03) was “decrease” and the “colonic TNFα (real-time qPCR)” value ([2]; EMPA 10 mg/kg daily gavage, 14 days, p=0.02) was “significant decreases”. The “colonic IFNγ (real-time qPCR)” value [2, 5] was “significant decreases”, the “colonic IL-1β (real-time qPCR)” value [2, 5] was “significant decreases” and the “body weight over the 14 days” value ([2]; EMPA 10 mg/kg daily gavage, vehicle treated mice continued to lose weight, p=0.04) was “maintained their weight”. The “blood glucose levels in pilot experiments” value ([2]; EMPA 10 mg/kg dose, pilot experiments) was “no effect”, the blood glucose levels ([2]; EMPA-treated mice vs controls, 14 days) was “no significant differences” and the “expression of anti-inflammatory M2 markers” value (murine macrophages; AMPK-mediated mechanism) was “increased”. For the same compound, the “LPS-induced ATP depletion” value (murine macrophages) was “prevented”, the “LPS-induced TNFα and iNOS expression” value (murine macrophages) was “attenuated” and the TNFα-stimulated chemokine release (human THP-1 macrophages) was “decreased”. For the same compound, the free plasma concentration [3] was roughly 20 nmol/L, the “time to peak levels” value ([4]; after a single dose) was 1.5 h and the bioavailability ([4]; humans) was 78%. For the same compound, the half-life ([4]; in humans) was roughly 12 h and the “recovered in the feces as unchanged drug” value ([4]; in vivo) was “Approximately 40%”.
